In the supplement of paper PMC10307832:

What was measured:
Assay in all cases: relative viability (nuclei count vs DMSO), 5 days (fraction); higher = more cells survive
[1] = compound: Cn1nnc2c(C(N)=O)ncn2c1=O [Temozolomide] + CC(=O)c1c(C)c2cnc(Nc3ccc(N4CCNCC4)cn3)nc2n(C2CCCC2)c1=O [Palbociclib] (partner 0.5 µM)
How it was run: (§1)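 Lung cancer cell lines in 1536-well plates were dosed by pin tool the day after seeding, either with one drug alone or with a fixed anchor-drug dose plus five library-drug doses (not always all listed) in √10 steps. After 5 days, cells were fixed and their nuclei stained in one step (final 0.05% Triton X-100, 1% formaldehyde, 1 ug/ml Hoechst), then counted on 4× images. Relative viability is the nuclei count in treated wells divided by that in vehicle wells. Values are medians of duplicate plates.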

[2] = compound: Cn1nnc2c(C(N)=O)ncn2c1=O [Temozolomide] + CC(C)C[C@H](NC(=O)[C@H](Cc1ccccc1)NC(=O)c1cnccn1)B(O)O [Bortezomib] (partner 0.002 µM)
How it was run: as §1

Temozolomide + AZD7762 = compound: Cn1nnc2c(C(N)=O)ncn2c1=O [Temozolomide] + NC(=O)Nc1cc(-c2cccc(F)c2)sc1C(=O)N[C@H]1CCCNC1 [AZD7762] (partner 0.2 µM)
How it was run: as §1

AZD5582 + Alpelisib = compound: C[C@@H](C(=O)N[C@@H](C1CCCCC1)C(=O)N2CCC[C@H]2C(=O)N[C@@H]3[C@@H](CC4=CC=CC=C34)OCC#CC#CCO[C@@H]5CC6=CC=CC=C6[C@@H]5NC(=O)[C@@H]7CCCN7C(=O)[C@H](C8CCCCC8)NC(=O)[C@H](C)NC)NC [AZD5582] + Cc1nc(NC(=O)N2CCC[C@H]2C(N)=O)sc1-c1ccnc(C(C)(C)C(F)(F)F)c1 [Alpelisib] (partner 2 µM)
How it was run: as §1

Cell Line | relative viability ([1]; first compound 0.2 µM) | relative viability ([1]; first compound 0.6325 µM) | relative viability ([1]; first compound 2 µM) | relative viability ([1]; first compound 6.325 µM) | relative viability ([1]; first compound 20 µM) | relative viability ([2]; first compound 0.2 µM) | relative viability ([2]; first compound 0.6325 µM) | relative viability ([2]; first compound 2 µM) | relative viability ([2]; first compound 6.325 µM) | relative viability ([2]; first compound 20 µM) | relative viability (Temozolomide + AZD7762; first compound 0.2 µM) | relative viability (Temozolomide + AZD7762; first compound 0.6325 µM) | relative viability (Temozolomide + AZD7762; first compound 2 µM) | relative viability (Temozolomide + AZD7762; first compound 6.325 µM) | relative viability (Temozolomide + AZD7762; first compound 20 µM) | relative viability (AZD5582 + Alpelisib; first compound 0.001581 µM) | relative viability (AZD5582 + Alpelisib; first compound 0.005 µM) | relative viability (AZD5582 + Alpelisib; first compound 0.01581 µM) | relative viability (AZD5582 + Alpelisib; first compound 0.05 µM)
NCI-H1355 | 0.35 | 0.4 | 0.413 | 0.404 | 0.361 | 1.34 | 1.2 | 1.2 | 1.09 | 1.14 | 0.736 | 0.743 | 0.716 | 0.729 | 0.751 | 0.724 | 0.832 | 0.82 | 0.852
NCI-H661 | 0.344 | 0.393 | 0.437 | 0.411 | 0.402 | – | 0.889 | 0.887 | 0.844 | 0.864 | – | – | – | – | – | 0.592 | 0.524 | 0.557 | 0.521
NCI-H1395 | 0.532 | 0.62 | 0.663 | 0.616 | 0.535 | – | – | – | – | – | 0.385 | 0.381 | 0.454 | 0.332 | 0.362 | 1.08 | 1.19 | – | 1.39
SW 900 | 0.598 | 0.612 | 0.556 | 0.559 | 0.468 | – | – | – | – | – | 0.587 | 0.63 | 0.583 | 0.627 | 0.683 | – | – | – | –
COR-L23 | 0.383 | 0.398 | 0.311 | 0.266 | 0.269 | 1.15 | 1.12 | 1.08 | 1.06 | 0.963 | – | – | – | – | – | 0.73 | 0.801 | 0.799 | 0.875
NCI-H1650 | 0.339 | 0.406 | 0.362 | 0.355 | 0.28 | 0.199 | 0.175 | 0.205 | 0.167 | 0.196 | – | – | – | – | – | – | – | – | –
Calu-6 | – | – | – | – | – | 1.11 | 0.866 | 1.25 | 0.955 | 1.02 | – | – | – | – | – | 0.822 | 0.843 | 1.07 | 0.734
NCI-H596 | – | – | – | – | – | 1.04 | 1.02 | 0.97 | 0.908 | 1.07 | 1.29 | 1.09 | 1.17 | 1.02 | 1.29 | 0.554 | 0.33 | 0.538 | 0.304
NCI-H358 | 0.137 | 0.143 | 0.128 | 0.136 | 0.131 | – | – | – | – | – | – | 0.466 | 0.533 | 0.408 | 0.369 | 0.725 | 1.02 | 0.89 | 1.02
NCI-H1563 | – | – | – | – | – | 0.91 | 0.862 | 0.911 | 0.878 | 0.833 | – | – | – | – | – | 1.02 | 0.893 | 0.858 | 1.01
SK-MES-1 | 0.328 | 0.312 | 0.332 | 0.353 | 0.332 | – | – | – | – | – | – | – | – | – | – | 0.773 | 0.995 | 0.808 | 0.947
UMC-11 | 0.312 | 0.38 | 0.3 | 0.286 | 0.321 | 0.861 | 0.924 | 0.945 | 0.519 | 0.377 | – | – | – | – | – | 1.05 | 1.11 | 0.968 | 1.08
NCI-H2170 | – | 0.398 | 0.368 | 0.375 | 0.264 | – | – | – | – | – | – | 0.951 | 0.733 | 0.466 | 0.295 | 0.764 | 0.809 | 0.867 | 0.969
NCI-H1944 | 0.335 | 0.341 | 0.345 | 0.341 | 0.298 | – | – | – | – | – | 0.432 | 0.505 | 0.391 | 0.441 | 0.696 | 0.834 | 1.05 | 0.793 | 1.11
NCI-H1299 | – | – | – | – | – | 1.07 | 1.06 | 1.04 | 1.02 | 1.02 | – | – | – | – | – | 1.01 | 1.11 | 1.07 | 1.03
EBC-1 | – | – | – | – | – | 0.601 | 0.577 | 0.549 | 0.544 | 0.575 | – | – | – | – | – | 0.754 | 0.866 | 0.869 | 0.857
SK-LU-1 | 0.382 | 0.397 | 0.431 | 0.33 | 0.318 | 1.33 | 1.3 | 1.22 | 0.53 | 0.417 | – | – | – | – | – | 0.744 | 0.554 | 0.95 | 0.243
A549 | – | – | – | – | – | – | – | – | – | – | – | – | – | – | – | 0.713 | 0.717 | 0.769 | 0.835
NCI-H520 | 0.215 | 0.225 | 0.228 | 0.278 | 0.243 | 0.733 | 0.688 | 0.768 | 0.636 | 0.548 | – | – | – | – | – | 0.97 | 0.89 | 0.838 | 1.07
NCI-H2023 | 0.407 | 0.377 | 0.377 | 0.379 | 0.346 | 1.01 | 0.905 | 1.05 | 0.933 | 0.855 | – | – | – | – | – | 0.562 | 0.538 | 0.567 | 0.609
LK-2 | 0.599 | 0.719 | 0.601 | 0.327 | 0.2 | – | – | – | – | – | 0.444 | 0.372 | 0.404 | 0.254 | 0.271 | 1.05 | 1.15 | 1.28 | 1.33
NCI-H1793 | – | 0.268 | 0.367 | 0.318 | 0.264 | – | – | – | – | – | – | 0.414 | 0.605 | 0.401 | 0.411 | 0.637 | 0.856 | 0.69 | 0.887
COR-L 105 | 0.433 | 0.446 | 0.402 | 0.383 | 0.33 | 0.646 | 0.683 | 1.01 | 0.756 | 0.32 | – | – | – | – | – | 0.961 | 0.847 | 0.981 | 1.49
NCI-H2009 | 0.274 | 0.217 | 0.238 | 0.224 | 0.225 | 1.19 | 1 | 1.19 | 0.961 | 1.04 | – | – | – | – | – | 1.12 | 1.15 | 1.17 | 1.18
NCI-H522 | 0.976 | 0.919 | 1.05 | 1.02 | 0.682 | – | – | – | – | – | 0.728 | 0.907 | 0.952 | 0.748 | 0.758 | – | – | – | –
NCI-H2228 | 0.918 | 1.03 | 0.809 | 0.798 | 0.614 | 1.15 | 1.03 | 1.02 | 0.956 | 1.02 | – | – | – | – | – | 0.776 | 0.625 | 0.924 | 0.365
